Laboratory results: US9353146B2, “Acylation derivatives of paridis saponins I, preparation method therefor and application thereof” (HANGZHOU BENSHENG PHARMACEUTICAL CO., LTD., priority 2012, dated 2016)
Values after ≈ are worked out from the molar mass of the structure shown.

Key:
[1] = tested on: K562/adr (drug-resistant, chronic myeloid leukemia, CML); assay: Anti-leukemia cell growth inhibition, MTT method, 72 h; type: cell-based, human; details: for IC50 / IC90: Homo sapiens, K562/Adr
Description: (§1) Leukemia cell lines: leukemia cell lines: K562/adr (drug-resistant, chronic myeloid leukemia, CML), NB4 (acute promyelocytic leukemia, AML), and Kasumi-1 (acute myeloid leukemia M2 type, AML-M2), all of which were donated by Cancer Research Institute of Zhejiang University, China.
(§2) 6000 well-growing leukemia cells were obtained and inoculated into wells of a 96-well cell culture plate. The culture medium used was the 1640 cell culture medium containing 10% fetal bovine serum. After adding the Polyphyllin I derivatives with 5′-acylated arabinofuranosyl of different concentrations and mixing uniformly, the plate was placed in a carbon dioxide cell incubator (5% CO2) at 37° C. and incubated for 72 hours. Then the viable cell concentration was determined by the MTT method. In this experiment, the cell viability in control group (not treated with any compound) is set as 100%. On such basis, the cell viability (%) after treatment of the compound and the 50% inhibiting concentration for the leukemia cell growth at 72 hours (IC50 value and IC90 value of 72 hours) were calculated.

[2] = tested on: NB4 (acute promyelocytic leukemia, AML); assay: as above; type: cell-based, human; details: for IC50 / IC90: Homo sapiens
Description: as §1, §2

A549 (human lung cancer) = assay: Anti-human solid tumor cell growth inhibition, MTT method, 72 h; type: cell-based; details: for IC50 / IC90: Homo sapiens, A549
Description: (§3) Human solid tumor cell lines: A549 (human lung cancer) and SK-OV-3 (ovarian cancer cell), all of which are purchased from China Center For Type Culture Collection; RKO (human colon adenocarcinoma cell) and MG-63 (osteosarcoma), all of which are purchased from Fuxiang Bio-tech Co. Ltd., Shanghai, China; Hela (human cervical cancer cell), donated by Cancer Research Institute of Zhejiang University, China.
(§4) 4000 well-growing human solid tumor cells were obtained and inoculated into wells of a 96-well cell culture plate. The culture medium used was DMEM High Glucose cell culture medium containing 10% fetal bovine serum. The plate is placed in a carbon dioxide cell incubator (5% CO2) at 37° C. and incubated for 24 hours. After adding the Polyphyllin I derivatives with 5′-acylated arabinofuranosyl group of different concentrations and mixing uniformly, the plate was continued to be placed in a carbon dioxide cell incubator (5% CO2) at 37° C. and incubated for 72 hours. Then the viable cell concentration was determined by the MTT method and the cell viability (%) after drug treatment was calculated. In this experiment, the cell viability of control group (not treated with any compound) is set as 100%.

[3] = tested on: Hela (human cervical cancer cell); assay: as above; type: cell-based; details: for IC50 / IC90: Homo sapiens, HeLa
Description: as §3, §4

MG-63 (osteosarcoma) = assay: as above; type: cell-based; details: for IC50 / IC90: Homo sapiens, MG-63
Description: as §3, §4

[4] = tested on: Kasumi-1 (acute myeloid leukemia M2 type, AML-M2); assay: Anti-leukemia cell growth inhibition, MTT method, 72 h; type: cell-based, human; details: for IC50: Homo sapiens, Kasumi 1
Description: as §1, §2

[5] = tested on: RKO (human colon adenocarcinoma cell); assay: Anti-human solid tumor cell growth inhibition, MTT method, 72 h; type: cell-based; details: for IC90: Homo sapiens
Description: as §3, §4

[6] = tested on: SK-OV-3 (ovarian cancer cell); assay: as above; type: cell-based
Description: as §3, §4

[7] = tested on: nasopharyngeal carcinoma CNE-2 cell line; details: HUA Yonghong et al. 2011; cited from earlier work
[8] = tested on: nasopharyngeal carcinoma CNE-2 cell line; details: DDP as positive control; HUA Yonghong et al. 2011; cited from earlier work
[9] = tested on: human hepatocellular carcinoma SMMC-7721 cell line; details: in vitro; XIAO Meifang et al. 2011; cited from earlier work

Row | SMILES | IC50 [1] | IC90 [1] | IC50 [2] | IC90 [2] | IC50 (A549 (human lung cancer)) | IC90 (A549 (human lung cancer)) | IC50 [3] | IC90 [3] | IC90 [5] | also measured
1 | C[C@@H]1CC[C@@]2(OC1)OC1CC3C4CC=C5C[C@@H](O[C@@H]6O[C@H](CO)[C@@H](OC7O[C@@H](COC(=O)c8ccncc8)[C@H](O)[C@H]7O)[C@H](O)[C@H]6OC6O[C@@H](C)[C@H](O)[C@@H](O)[C@H]6O)CC[C@]5(C)C4CC[C@]3(C)C1[C@@H]2C (stereo partly drawn) [BS-PP-04] | 0.38 mg/L (≈ 0.396 µM) | 2.33 mg/L (≈ 2.43 µM) | 0.91 mg/L (≈ 0.948 µM) | 3.85 mg/L (≈ 4.01 µM) | 1 mg/L (≈ 1.04 µM) | 14.5 mg/L (≈ 15.1 µM) | 0.48 mg/L (≈ 0.5 µM) | 3.23 mg/L (≈ 3.36 µM) |  | 
2 | CC(=O)OC[C@@H]1OC(O[C@H]2[C@H](O)[C@@H](OC3O[C@@H](C)[C@H](O)[C@@H](O)[C@H]3O)[C@H](O[C@H]3CC[C@@]4(C)C(=CCC5C6CC7O[C@]8(CC[C@@H](C)CO8)[C@@H](C)C7[C@@]6(C)CCC54)C3)O[C@@H]2CO)[C@H](O)[C@H]1O (stereo partly drawn) [BS-PP-11] | 0.42 mg/L (≈ 0.468 µM) | 2.32 mg/L (≈ 2.59 µM) | 0.94 mg/L (≈ 1.05 µM) | 2.48 mg/L (≈ 2.76 µM) | 0.83 mg/L (≈ 0.925 µM) | 10.2 mg/L (≈ 11.4 µM) | 0.62 mg/L (≈ 0.691 µM) | 2.57 mg/L (≈ 2.86 µM) |  | IC50 (MG-63 (osteosarcoma)): 0.33 mg/L (≈ 0.368 µM); IC90 (MG-63 (osteosarcoma)): 0.76 mg/L (≈ 0.847 µM)
3 | C[C@@H]1CC[C@@]2(OC1)OC1CC3C4CC=C5C[C@@H](O[C@@H]6O[C@H](CO)[C@@H](OC7O[C@@H](COC(=O)c8ccco8)[C@H](O)[C@H]7O)[C@H](O)[C@H]6OC6O[C@@H](C)[C@H](O)[C@@H](O)[C@H]6O)CC[C@]5(C)C4CC[C@]3(C)C1[C@@H]2C (stereo partly drawn) [BS-PP-10] | 0.45 mg/L (≈ 0.474 µM) | 2.23 mg/L (≈ 2.35 µM) | 0.83 mg/L (≈ 0.875 µM) | 2.82 mg/L (≈ 2.97 µM) | 0.86 mg/L (≈ 0.906 µM) | 10.2 mg/L (≈ 10.8 µM) | 0.45 mg/L (≈ 0.474 µM) | 2.01 mg/L (≈ 2.12 µM) | 5.46 mg/L (≈ 5.75 µM) | IC50 [4]: 0.78 mg/L (≈ 0.822 µM); IC50 (MG-63 (osteosarcoma)): 0.33 mg/L (≈ 0.348 µM); IC90 (MG-63 (osteosarcoma)): 0.85 mg/L (≈ 0.896 µM); IC50 ([6]; Homo sapiens, SK-OV-3): 0.65 mg/L (≈ 0.685 µM); IC90 ([6]; Homo sapiens, SK-OV-3): 0.97 mg/L (≈ 1.02 µM)
4 | C[C@@H]1CC[C@@]2(OC1)O[C@H]1C[C@H]3[C@@H]4CC=C5C[C@@H](O[C@@H]6O[C@H](CO)[C@@H](O[C@@H]7O[C@@H](CO)[C@H](O)[C@H]7O)[C@H](O)[C@H]6O[C@@H]6O[C@@H](C)[C@H](O)[C@@H](O)[C@H]6O)CC[C@]5(C)[C@H]4CC[C@]3(C)[C@H]1[C@@H]2C [PP, 4-O-arabinofuranosyl-2-O-rhamnopyranosyl-β-D-glucopyranosyldioscin, reference compound] |  |  |  |  |  |  |  |  |  | K562/adr IC50 [1]: 0.87 mg/L; K562/adr IC90 [1]: 2.98 mg/L; Kasumi-1 IC50 [4]: 0.92 mg/L; NB4 IC50 [2]: 1.84 mg/L; NB4 IC90 [2]: 6.75 mg/L; A549 IC50 (A549 (human lung cancer)): 1.86 mg/L; A549 IC90 (A549 (human lung cancer)): 14.63 mg/L; Hela IC50 [3]: 0.77 mg/L; Hela IC90 [3]: 4.86 mg/L; MG-63 IC50 (MG-63 (osteosarcoma)): 0.37 mg/L; MG-63 IC90 (MG-63 (osteosarcoma)): 0.97 mg/L; RKO IC90 [5]: 8.48 mg/L; SK-OV-3 IC50 [6]: 0.70 mg/L; SK-OV-3 IC90 [6]: 1.70 mg/L; effects on the proliferation of CNE-2 cells [7]: time- and dose-dependent inhibitory effects; radiosensitizing effects on CNE-2 cell line [8]: concentration-dependent radiosensitizing effects; effect on proliferation of SMMC-7721 cells [9]: inhibit the proliferation of hepatocellular carcinoma SMMC-7721 cells in a time- and concentration-dependent manner
5 | COc1ccc(C(=O)OC[C@@H]2OC(O[C@H]3[C@H](O)[C@@H](OC4O[C@@H](C)[C@H](O)[C@@H](O)[C@H]4O)[C@H](O[C@H]4CC[C@@]5(C)C(=CCC6C7CC8O[C@]9(CC[C@@H](C)CO9)[C@@H](C)C8[C@@]7(C)CCC65)C4)O[C@@H]3CO)[C@H](O)[C@H]2O)cc1 (stereo partly drawn) [BS-PP-03] | 0.69 mg/L (≈ 0.698 µM) |  | 1.13 mg/L (≈ 1.14 µM) | 1.96 mg/L (≈ 1.98 µM) |  |  |  |  | 4.5 mg/L (≈ 4.55 µM) | 
6 | C[C@@H]1CC[C@@]2(OC1)OC1CC3C4CC=C5C[C@@H](O[C@@H]6O[C@H](CO)[C@@H](OC7O[C@@H](COC(=O)c8ccc(F)cc8F)[C@H](O)[C@H]7O)[C@H](O)[C@H]6OC6O[C@@H](C)[C@H](O)[C@@H](O)[C@H]6O)CC[C@]5(C)C4CC[C@]3(C)C1[C@@H]2C (stereo partly drawn) [BS-PP-08] | 0.49 mg/L (≈ 0.492 µM) | 2.5 mg/L (≈ 2.51 µM) | 0.85 mg/L (≈ 0.854 µM) | 1.9 mg/L (≈ 1.91 µM) | 1.19 mg/L (≈ 1.2 µM) | 14.1 mg/L (≈ 14.1 µM) | 0.61 mg/L (≈ 0.613 µM) | 3.89 mg/L (≈ 3.91 µM) | 4.93 mg/L (≈ 4.95 µM) | 
7 | C[C@@H]1CC[C@@]2(OC1)OC1CC3C4CC=C5C[C@@H](O[C@@H]6O[C@H](CO)[C@@H](OC7O[C@@H](COC(=O)C8CC8)[C@H](O)[C@H]7O)[C@H](O)[C@H]6OC6O[C@@H](C)[C@H](O)[C@@H](O)[C@H]6O)CC[C@]5(C)C4CC[C@]3(C)C1[C@@H]2C (stereo partly drawn) [BS-PP-12] | 0.42 mg/L (≈ 0.455 µM) | 2.14 mg/L (≈ 2.32 µM) | 1.22 mg/L (≈ 1.32 µM) | 3.96 mg/L (≈ 4.29 µM) | 0.86 mg/L (≈ 0.932 µM) | 7.38 mg/L (≈ 7.99 µM) | 0.5 mg/L (≈ 0.542 µM) | 3.19 mg/L (≈ 3.46 µM) | 6.08 mg/L (≈ 6.59 µM) | IC50 [4]: 0.86 mg/L (≈ 0.932 µM)
8 | C[C@@H]1CC[C@@]2(OC1)OC1CC3C4CC=C5C[C@@H](O[C@@H]6O[C@H](CO)[C@@H](OC7O[C@@H](COC(=O)c8cccs8)[C@H](O)[C@H]7O)[C@H](O)[C@H]6OC6O[C@@H](C)[C@H](O)[C@@H](O)[C@H]6O)CC[C@]5(C)C4CC[C@]3(C)C1[C@@H]2C (stereo partly drawn) [BS-PP-09] |  |  | 1.11 mg/L (≈ 1.15 µM) | 3.92 mg/L (≈ 4.06 µM) | 1.6 mg/L (≈ 1.66 µM) | 13 mg/L (≈ 13.5 µM) | 0.55 mg/L (≈ 0.57 µM) | 2 mg/L (≈ 2.07 µM) | 5.25 mg/L (≈ 5.44 µM) | 
9 | C[C@@H]1CC[C@@]2(OC1)OC1CC3C4CC=C5C[C@@H](O[C@@H]6O[C@H](CO)[C@@H](OC7O[C@@H](COC(=O)c8ccc(C(F)(F)F)cc8)[C@H](O)[C@H]7O)[C@H](O)[C@H]6OC6O[C@@H](C)[C@H](O)[C@@H](O)[C@H]6O)CC[C@]5(C)C4CC[C@]3(C)C1[C@@H]2C (stereo partly drawn) [BS-PP-05] |  |  |  |  | 1.8 mg/L (≈ 1.75 µM) | 12 mg/L (≈ 11.7 µM) |  |  | 6.82 mg/L (≈ 6.64 µM) | 
10 | C[C@@H]1CC[C@@]2(OC1)OC1CC3C4CC=C5C[C@@H](O[C@@H]6O[C@H](CO)[C@@H](OC7O[C@@H](COC(=O)c8ccc(F)cc8)[C@H](O)[C@H]7O)[C@H](O)[C@H]6OC6O[C@@H](C)[C@H](O)[C@@H](O)[C@H]6O)CC[C@]5(C)C4CC[C@]3(C)C1[C@@H]2C (stereo partly drawn) [BS-PP-06] | 0.73 mg/L (≈ 0.747 µM) | 2.66 mg/L (≈ 2.72 µM) | 0.79 mg/L (≈ 0.808 µM) | 4.09 mg/L (≈ 4.19 µM) |  |  |  |  | 5.13 mg/L (≈ 5.25 µM) | 
11 | C[C@@H]1CC[C@@]2(OC1)OC1CC3C4CC=C5C[C@@H](O[C@@H]6O[C@H](CO)[C@@H](OC7O[C@@H](COC(=O)c8ccc(F)cc8Cl)[C@H](O)[C@H]7O)[C@H](O)[C@H]6OC6O[C@@H](C)[C@H](O)[C@@H](O)[C@H]6O)CC[C@]5(C)C4CC[C@]3(C)C1[C@@H]2C (stereo partly drawn) [BS-PP-15] | 0.76 mg/L (≈ 0.751 µM) | 2 mg/L (≈ 1.98 µM) | 1.19 mg/L (≈ 1.18 µM) | 3.4 mg/L (≈ 3.36 µM) | 1.8 mg/L (≈ 1.78 µM) | 9.9 mg/L (≈ 9.79 µM) | 0.68 mg/L (≈ 0.672 µM) | 3.51 mg/L (≈ 3.47 µM) | 5.13 mg/L (≈ 5.07 µM) | 
